The test system of assay [1] is 2xF30-Broccoli RNA (Bi), transcript of T7 promoter-Broccoli template without operator (RNA, aptamer) UUGCCAUGUGUAUGUGGGAGACGGUCGGGUCCAGAUAUUCGUAUCUGUCGAGUAGAGUGUGGGCUCCCACAUACUCUGAUGAUCCUUCGGGAUCAUUCAUGGCAA
The assay can be described thus: fluorescence turn-on during in vitro transcription. Conditions: 25 mM NaCl, 8 mM MgCl2; 40 mM Tris-HCl pH 8.0, 2 mM spermidine, 5 mM DTT, 34 °C, 20 μM dye; NTPs, T7 RNAP present.

Assay [2] deals with Broccoli run-off transcript of the 251 bp T7 promoter-O1-Broccoli template (RNA, aptamer) GGCAAUUGUGAGCGGAUAACAAUUCUAGAUUGCCAUGUGUAUGUGGGAGACGGUCGGGUCCAGAUAUUCGUAUCUGUCGAGUAGAGUGUGGGCUCCCACAUACUCUGAUGAUCCUUCGGGAUCAUUCAUGGCAAGGAUCCG
Description: fluorescence turn-on during in vitro transcription. Conditions: 25 mM NaCl, 8 mM MgCl2; 40 mM Tris-HCl pH 8.0, 2 mM spermidine, 5 mM DTT, 34 °C, 20 μM dye; NTPs, T7 RNAP present.

Consider `CC1=N/C(=C\c2cc(F)c(O)c(F)c2)C(=O)N1CC(F)(F)F`, for which the binding result in assay [1] and in assay [2] was “yes” in each case.

(Values after PMC11175446 (2024).)
